In US20200102349A1, “PEPTIDE REAGENTS AND METHODS FOR DETECTION AND TARGETING OF DYSPLASIA, EARLY CANCER AND CANCER” (THE REGENTS OF THE UNIVERSITY OF MICHIGAN, priority 2014, published 2020):

What was measured:
HT29 cells = assay: Peptide binding to colorectal cancer cells on confocal microscopy (HT29); format: cell-based, human; conditions: HT29, 5 μM, 3 min
Procedure: (§1) HT29, SW480, and SW620 cells (˜10^3) were grown on cover slips to ˜80% confluence. The cells were washed 1× with PBS and incubated with 5 μM of QRH*-Cy5.5 and PEH*-Cy5.5 for 3 min at RT. The cells were then washed 3× in PBS, fixed with 4% paraformaldehyde (PFA) for 5 min, washed 1× with PBS, and then mounted on glass slides with ProLong Gold reagent containing DAPI (Invitrogen). Confocal fluorescence images were collected with FITC, Cy5.5, and DAPI filters (Leica Inverted SPSX Confocal Microscope System) using a 63× oil-immersion objective. Fluorescence intensities from 5 cells in 2 independent images were quantified using custom Matlab (Mathworks) software.
(§2) We assessed binding of QRH*-Cy5.5 to a panel of colorectal cancer cells that vary in EGFR expression level on confocal microscopy. We observed binding of QRH*-Cy5.5 to the surface (arrows) of HT29, SW480, and SW620 cells with decreasing strength, FIG. 3A-C, scale bars 30 μm. […] Results are an average of 10 cells from 2 independent images. EGFR expression is shown on Western blot, FIG. 3H.

SW620 cells = assay: Peptide binding to colorectal cancer cells on confocal microscopy (SW620); format: cell-based, human; conditions: SW620, 5 μM, 3 min
Procedure: as §1, §2

human colonic dysplasia = assay: Binding of EGFR peptide and antibody to human colonic dysplasia specimens, confocal microscopy; conditions: for log transformed fluorescence intensity, mean (±std): 5 μM, 10 min
Procedure: For the in vivo fluorescence images of mouse colon, the T/B ratios for flat dysplasia and polyps were log-transformed to improve normality. The fold-change between classification pairs was estimated using the anti-log of the difference in the log-transformed data. Differences in results between the experimental and control peptides were evaluated on t-test. *P<0.05 was considered significant. Similar methods were used to evaluate the ex vivo fluorescence images of human colonic specimens. The results were plotted on a receiver-operator characteristic (ROC) curve. Co-localization of peptide and antibody binding was evaluated on Pearson's correlation coefficient. All analyses were performed using custom Matlab software (MathWorks Inc).
Specimens of human colonic mucosa were obtained from biopsy during routine colonoscopy, frozen in OCT, cut in 10 μm sections, and incubated with QRH*-Cy5.5 (5 μM) in 1×PBS for 10 min at RT. The sections were washed 3× with PBS and incubated overnight at 4° C. with 1:1000 dilution of primary monoclonal rabbit anti-EGFR antibody (Cell Signaling Technology, #4267, isotype IgG). The sections were washed with PBS 3× and incubated with 1:500 dilution of Alexa Fluor 488-labeled secondary goat anti-rabbit antibody (Invitrogen) for 1 hour at RT. The sections were washed with PBS 3×, and fixed with 4% PFA for 10 min. The sections were then washed with PBS 1×, and mounted with ProLong Gold reagent containing DAPI (Invitrogen). Confocal fluorescence images were collected with DAPI, FITC and Cy5.5 filters with 20× objective (Leica TCS SP5 Microsystems). The mean fluorescence intensities from 3 boxes (dimensions of 30×30 μm2) located completely within the surface epithelium of each specimen were measured. […] Adjacent sections were processed for routine histology (H&E) that was reviewed by two gastrointestinal pathologists (SRO and HDA).

[1] = test system: high-grade dysplasia in human esophagus; assay: Binding of QRH*-Cy5.5 to high-grade dysplasia in human esophagus
[2] = test system: human biliary tract epithelium; assay: Immunofluorescence of QRH*-Cy5.5 on human biliary tract epithelium

average fold-change for dysplasia compared to normal (human colonic dysplasia): 19.4 | log transformed fluorescence intensity, mean (±std) (human colonic dysplasia; dysplasia (n=29)): 1.04±0.54 | log transformed fluorescence intensity, mean (±std) (human colonic dysplasia; normal (n=15)): −0.248±0.49 | staining of high-grade dysplasia (HGD) [1]: Intense staining
Substance: QRHKPRE (SEQ ID NO: 1) with Cy5.5 fluorophore attached via a GGGSK linker (SEQ ID NO: 18) on the C-terminus [QRH*-Cy5.5]
fluorescence intensity of binding (mean±std) (HT29 cells): 3.6±0.6 | fluorescence intensity of binding (mean±std) (SW620 cells): 1.0±0.3 | staining on immunofluorescence ([2]; biliary intraepithelial neoplasia (BilIN) and biliary tract cancer): intense staining | staining on immunofluorescence ([2]; normal biliary tract epithelium): minimal staining
